According to EP4667483A1, “HUMAN TRANSFERRIN RECEPTOR-BINDING PEPTIDE” (JCR Pharmaceuticals Co., Ltd., priority 2023, dated 2024):
Numbered stars: 1 amine (or outer) side, 2 acyl side, 3 side chain; on linkers, the order of the positions; unused ones are H or OH. Bridge positions count the residues as written; N and C are the ends. Square brackets hold non-standard residues; d marks the D form. Side chains are listed from the residue outwards. Peptide text beside a SMILES is read from it. * marks the point of attachment. Trp(1-CH2COOH) = N[C@@H](Cc1cn(CC(=O)O)c2ccccc12)C(=O)O; Nle(6-morpholino) = N[C@@H](CCCCN1CCOCC1)C(=O)O; Trp(7-aza) = N[C@@H](Cc1c[nH]c2ncccc12)C(=O)O; NMePhe(3-Cl) = CN[C@@H](Cc1cccc(Cl)c1)C(=O)O; Piperazinyl(4-CH2COOH) = O=C(O)CN1CCN(*)CC1; 3Pal(6-NH2) = Nc1ccc(C[C@H](N)C(=O)O)cn1; NMeY = CN[C@@H](Cc1ccc(O)cc1)C(=O)O; 4Pal = N[C@@H](Cc1ccncc1)C(=O)O; PEG4 = NCCOCCOCCOCCOCCC(=O)O; Carboxymethyl = O=C(O)C*; CO = O=C([*:1])[*:2]

What was measured:
[1] = target: T1, human transferrin receptor (hTfR) (Homo sapiens, UniProt P02786); test: SPR measurement under pH 7.4 conditions (Biacore T200, CM3 chip, hTfR captured by His Tag antibody); format: binding; conditions: pH 7.4, single-cycle kinetics; read-out: hTfR SPR pH7.4 KD
T1 sequence (P02786 whole entry): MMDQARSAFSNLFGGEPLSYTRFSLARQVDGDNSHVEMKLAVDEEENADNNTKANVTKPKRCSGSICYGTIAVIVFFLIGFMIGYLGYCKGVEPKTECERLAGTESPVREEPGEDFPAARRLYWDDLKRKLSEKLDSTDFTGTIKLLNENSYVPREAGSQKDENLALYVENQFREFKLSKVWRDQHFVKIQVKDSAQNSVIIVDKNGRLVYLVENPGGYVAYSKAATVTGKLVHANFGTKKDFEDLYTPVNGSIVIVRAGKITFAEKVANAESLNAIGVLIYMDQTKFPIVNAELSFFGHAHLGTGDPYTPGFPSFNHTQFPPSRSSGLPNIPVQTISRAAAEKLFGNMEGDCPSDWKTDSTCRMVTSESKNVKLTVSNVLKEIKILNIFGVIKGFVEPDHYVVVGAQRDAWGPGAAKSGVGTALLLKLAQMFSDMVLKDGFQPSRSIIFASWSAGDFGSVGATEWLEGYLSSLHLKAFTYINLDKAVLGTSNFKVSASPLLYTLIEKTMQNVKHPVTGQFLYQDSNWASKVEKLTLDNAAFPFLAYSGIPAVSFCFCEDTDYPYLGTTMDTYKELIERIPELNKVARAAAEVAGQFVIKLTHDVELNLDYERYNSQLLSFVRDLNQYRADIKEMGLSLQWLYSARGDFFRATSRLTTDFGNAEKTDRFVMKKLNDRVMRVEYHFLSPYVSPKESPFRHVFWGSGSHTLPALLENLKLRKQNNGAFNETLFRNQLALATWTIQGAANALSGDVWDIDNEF
Protocol: (§1) Molecular interactions between the synthesized peptides and the transferrin receptor (hTfR) were evaluated by surface plasmon resonance (SPR) using the following method. The specific assay procedure is described below.
An CM3 sensor chip (Cytiva) was inserted into BiacoreT200 (Cytiva), then a priming operation was performed three times by using a running buffer: HBS-P+, pH7.4 (Cytiva), and an equilibrium state was created at a flow rate of […]. Ligand immobilization was performed at a flow rate of 10 µL/min. After mixing 50 µL each of 60 mM EDC solution (Cytiva) and 650 mM NHS solution (Cytiva), the mixture was reacted at a flow rate of 10 µL/min for 420 seconds. 150 µL of […] THE His Tag Antibody, mAb, Mouse (GenScript) was prepared by diluting with 10 mM acetic acid solution (pH 5.0), and reacted at a flow rate of 10 µL/ min for 420 seconds. Then, THE His Tag Antibody, mAb, Mouse (GenScript) was immobilized as a capture molecule on the CM3 sensor chip. After immobilization, capping was performed by reacting with 1.0 M ethanolamine solution (Cytiva) at a flow rate of 10 µL/min for 420 seconds. 300 nM hTfR was captured at a flow rate of 10 µL/min, a peptide solution prepared at 10 mM in DMSO was diluted with running buffer to achieve a final concentration of 10 µM, and peptide solutions at 250 nM, 125 nM, 62.5 nM, 25 nM, and 12.5 nM were prepared. . The peptide samples were reacted at a flow late of 30 µL/min for 120 seconds, followed by dissociation for 600 seconds. The kinetics of the peptide against hTfR was obtained by SPR measurement for the above samples.
(§2) The kinetic evaluation model was single-cycle kinetics, and curve fitting was performed using Biacore T200 Evaluation Software Version 3.0 (Cytiva). The binding of the peptide to hTfR was evaluated by performing curve fitting on the obtained sensorgram by the least squares method and obtaining the kon value, the koff value, and the KD value.

[2] = target: T1, human transferrin receptor (hTfR); test: SPR measurement under pH 6.0 conditions (Biacore T200, NTA chip, immobilized hTfR); format: binding; conditions: read-out: hTfR SPR pH6.0 KD
Protocol: as §1
An NTA sensor chip (Cytiva) was inserted in a Biacore T200 (Cytiva), a priming operation was performed 3 times with a running buffer: HBS-P+ pH 6.0 (Cytiva), and an equilibrium state was created at a flow rate of 30 µL/min. A ligand immobilization operation was carried out at a flow rate of 10 µL/min.
The surface of the NTA sensor chip was washed with 350 mM EDTA solution, nickel ions were loaded into the carbomethyldextran chains of the sensor chip with a 500 µM aqueous nickel chloride solution, and then washing was performed with 3 mM EDTA solution. After mixing 50 µL of each of 60 mM EDC solution (Cytiva) and 650 mM NHS solution (Cytiva), the mixture was reacted for 420 seconds at a flow rate of 10 µL/min. 150 µL of 0.2 µM hTfR solution was prepared by diluting with 10 mM acetic acid solution (pH 5.0), and reacted for 420 seconds at a flow rate of 10 µL/min to immobilize hTfR on the NTA sensor chip. For the human transferrin receptor (hTfR), the recombinant hTfR described in Example 2 of WO2018/124121 was used. After immobilization, capping was performed by reacting with 1.0 M ethanolamine aqueous solution (Cytiva) at a flow rate of 10 µL/min for 420 seconds. Peptide lysate prepared in DMSO to 10 mM was diluted with the running buffer to a final concentration of 10 µM peptide lysate, and then peptide solutions of 250 nM, 125 nM, 62.5 nM, 25 nM, and 12.5 nM were prepared. The kinetics of the peptide against hTfR was obtained by SPR measurement using the above samples.
as §2

Kd [1] [nM] | Kd ([2]; pH 6.0, single-cycle kinetics) [nM] | Kd ([2]; SPR, pH 6.0, Table 1-3-2-2) [nM] | Compound
1.56 | 18.2 | – | CC[C@H](C)[C@@H]1NC(=O)[C@H](Cc2ccc(OC)cc2)NC(=O)[C@H](Cc2ccc(N)nc2)NC(=O)[C@H](CC(N)=O)NC(=O)[C@H](Cc2c[nH]c3ncccc23)NC(=O)[C@H](C(C)C)NC(=O)[C@H](Cc2cccc(Cl)c2)N(C)C(=O)[C@H](C(C)C)NC(=O)[C@H](C)NC(=O)CSC[C@@H](C(=O)NCCOCCOCCOCCOCCC(N)=O)NC(=O)[C@H](Cc2ccc(O)cc2)N(C)C(=O)[C@H](Cc2ccncc2)NC(=O)[C@H](CCCNC(=N)N)NC(=O)[C@H](CCCNC(=N)N)NC(=O)[C@H]([C@@H](C)CC)NC1=O [compound 1]
0.888 | 16.2 | – | CC[C@H](C)[C@@H]1NC(=O)[C@H](Cc2ccc(OC)cc2)NC(=O)[C@H](Cc2ccc(N)nc2)NC(=O)[C@H](CC(N)=O)NC(=O)[C@H](Cc2c[nH]c3ncccc23)NC(=O)[C@H](C(C)C)NC(=O)[C@H](Cc2cccc(Cl)c2)N(C)C(=O)[C@H](C(C)C)NC(=O)[C@H](C)NC(=O)CSC[C@@H](C(=O)NCCOCCOCCOCCOCCC(N)=O)NC(=O)[C@H](Cc2ccc(O)cc2)N(C)C(=O)[C@H](Cc2ccncc2)NC(=O)[C@H](CCCNC(=N)N)NC(=O)[C@H](CCCCN2CCOCC2)NC(=O)[C@H]([C@@H](C)CC)NC1=O [compound 2] ({CH2CO}-AV[NMePhe(3-Cl)]V[Trp(7-aza)]N[3Pal(6-NH2)]Y(Me)II[Nle(6-morpholino)]R[4Pal][NMeY]C[PEG4]-NH2; thioether N-15)
2.63 | 16.1 | – | CC[C@H](C)[C@@H]1NC(=O)[C@H](Cc2ccc(OC)cc2)NC(=O)[C@H](Cc2ccc(N)nc2)NC(=O)[C@H](CC(N)=O)NC(=O)[C@H](Cc2c[nH]c3ncccc23)NC(=O)[C@H](C(C)C)NC(=O)[C@H](Cc2cccc(Cl)c2)N(C)C(=O)[C@H](C(C)C)NC(=O)[C@H](C)NC(=O)CSC[C@@H](C(=O)NCCOCCOCCOCCOCCC(N)=O)NC(=O)[C@H](Cc2ccc(O)cc2)N(C)C(=O)[C@H](Cc2ccncc2)NC(=O)[C@H](CCCCN2CCOCC2)NC(=O)[C@H](CCCNC(=N)N)NC(=O)[C@H]([C@@H](C)CC)NC1=O [compound 3] ({CH2CO}-AV[NMePhe(3-Cl)]V[Trp(7-aza)]N[3Pal(6-NH2)]Y(Me)IIR[Nle(6-morpholino)][4Pal][NMeY]C[PEG4]-NH2; thioether N-15)
2.19 | 29.7 | – | CC[C@H](C)[C@@H]1NC(=O)[C@H](Cc2ccc(OC)cc2)NC(=O)[C@H](Cc2ccc(N)nc2)NC(=O)[C@H](CC(N)=O)NC(=O)[C@H](Cc2c[nH]c3ncccc23)NC(=O)[C@H](C(C)C)NC(=O)[C@H](Cc2cccc(Cl)c2)N(C)C(=O)[C@H](C(C)C)NC(=O)[C@H](C)NC(=O)CSC[C@@H](C(=O)NCCOCCOCCOCCOCCC(N)=O)NC(=O)[C@H](Cc2ccc(O)cc2)N(C)C(=O)[C@H](Cc2ccncc2)NC(=O)[C@H](CCCCN2CCOCC2)NC(=O)[C@H](CCCCN2CCOCC2)NC(=O)[C@H]([C@@H](C)CC)NC1=O [compound 4] ({CH2CO}-AV[NMePhe(3-Cl)]V[Trp(7-aza)]N[3Pal(6-NH2)]Y(Me)II[Nle(6-morpholino)][Nle(6-morpholino)][4Pal][NMeY]C[PEG4]-NH2; thioether N-15)
6.31 | 117 | – | CC[C@H](C)[C@@H]1NC(=O)[C@H](Cc2ccc(OC)cc2)NC(=O)[C@H](Cc2ccc(N)nc2)NC(=O)[C@H](CC(N)=O)NC(=O)[C@H](Cc2c[nH]c3ncccc23)NC(=O)[C@H](C(C)C)NC(=O)[C@H](Cc2cccc(Cl)c2)N(C)C(=O)[C@H](C(C)C)NC(=O)[C@H](C)NC(=O)CSC[C@@H](C(=O)NCCOCCOCCOCCOCCC(N)=O)NC(=O)[C@H](Cc2ccc(O)cc2)N(C)C(=O)[C@H](Cc2ccncc2)NC(=O)[C@H](CCCCNC(=O)N2CCN(CC(=O)O)CC2)NC(=O)[C@H](CCCCN2CCOCC2)NC(=O)[C@H]([C@@H](C)CC)NC1=O [compound 5] ({CH2CO}-AV[NMePhe(3-Cl)]V[Trp(7-aza)]N[3Pal(6-NH2)]Y(Me)II[Nle(6-morpholino)]K([CO-Piperazinyl(4-CH2COOH)])[4Pal][NMeY]C[PEG4]-NH2; thioether N-15)
6.56 | 21 | – | CC[C@H](C)[C@@H]1NC(=O)[C@H](Cc2ccc(OC)cc2)NC(=O)[C@H](Cc2ccc(N)nc2)NC(=O)[C@H](CC(N)=O)NC(=O)[C@H](Cc2cn(CC(=O)O)c3ccccc23)NC(=O)[C@H](C(C)C)NC(=O)[C@H](Cc2cccc(Cl)c2)N(C)C(=O)[C@H](C(C)C)NC(=O)[C@H](C)NC(=O)CSC[C@@H](C(=O)NCCOCCOCCOCCOCCC(N)=O)NC(=O)[C@H](Cc2ccc(O)cc2)N(C)C(=O)[C@H](Cc2ccncc2)NC(=O)[C@H](CCCCN2CCOCC2)NC(=O)[C@H](CCCCN2CCOCC2)NC(=O)[C@H]([C@@H](C)CC)NC1=O [compound 6] ({CH2CO}-AV[NMePhe(3-Cl)]V[Trp(1-CH2COOH)]N[3Pal(6-NH2)]Y(Me)II[Nle(6-morpholino)][Nle(6-morpholino)][4Pal][NMeY]C[PEG4]-NH2; thioether N-15)
16.3 | 89.8 | – | CC[C@H](C)[C@@H]1NC(=O)[C@H](Cc2ccc(OCC(=O)O)cc2)NC(=O)[C@H](Cc2ccc(N)nc2)NC(=O)[C@H](CC(N)=O)NC(=O)[C@H](Cc2c[nH]c3ncccc23)NC(=O)[C@H](C(C)C)NC(=O)[C@H](Cc2cccc(Cl)c2)N(C)C(=O)[C@H](C(C)C)NC(=O)[C@H](C)NC(=O)CSC[C@@H](C(=O)NCCOCCOCCOCCOCCC(N)=O)NC(=O)[C@H](Cc2ccc(O)cc2)N(C)C(=O)[C@H](Cc2ccncc2)NC(=O)[C@H](CCCCN2CCOCC2)NC(=O)[C@H](CCCCN2CCOCC2)NC(=O)[C@H]([C@@H](C)CC)NC1=O [compound 7] ({CH2CO}-AV[NMePhe(3-Cl)]V[Trp(7-aza)]N[3Pal(6-NH2)]Y(Carboxymethyl)II[Nle(6-morpholino)][Nle(6-morpholino)][4Pal][NMeY]C[PEG4]-NH2; thioether N-15)
10.7 | 113 | – | CC[C@H](C)[C@@H]1NC(=O)[C@H](Cc2ccc(OC)cc2)NC(=O)[C@H](Cc2ccc(N)nc2)NC(=O)[C@H](CC(N)=O)NC(=O)[C@H](Cc2cn(CC(=O)O)c3ccccc23)NC(=O)[C@H](C(C)C)NC(=O)[C@H](Cc2cccc(Cl)c2)N(C)C(=O)[C@H](C(C)C)NC(=O)[C@H](C)NC(=O)CSC[C@@H](C(=O)NCCOCCOCCOCCOCCC(N)=O)NC(=O)[C@H](Cc2ccc(O)cc2)N(C)C(=O)[C@H](Cc2ccncc2)NC(=O)[C@H](CCCCNC(=O)N2CCN(CC(=O)O)CC2)NC(=O)[C@H](CCCCN2CCOCC2)NC(=O)[C@H]([C@@H](C)CC)NC1=O [compound 8] ({CH2CO}-AV[NMePhe(3-Cl)]V[Trp(1-CH2COOH)]N[3Pal(6-NH2)]Y(Me)II[Nle(6-morpholino)]K([CO-Piperazinyl(4-CH2COOH)])[4Pal][NMeY]C[PEG4]-NH2; thioether N-15)
– | – | 145 | CC[C@H](C)[C@@H]1NC(=O)[C@H](Cc2ccc(O)cc2)NC(=O)[C@H](Cc2ccc(N)nc2)NC(=O)[C@H](CC(N)=O)NC(=O)[C@H](Cc2c[nH]c3ccccc23)N(C)C(=O)[C@H](C(C)C)NC(=O)[C@H](Cc2ccccc2)N(C)C(=O)[C@H](C(C)C)NC(=O)[C@H](C)NC(=O)CSC[C@@H](C(=O)NCC(=O)N[C@H](CCC(=O)O)C(=O)N[C@H](CCC(=O)O)C(=O)N[C@H](CCC(=O)O)C(=O)N[C@H](CO)C(=O)N[C@H](CO)C(=O)N[C@@H](CCCCN=[N+]=[N-])C(N)=O)NC(=O)[C@H](Cc2ccc(C(=O)O)cc2)N(C)C(=O)[C@H](Cc2ccc(O)cc2)NC(=O)[C@H](CCCNC(=N)N)NC(=O)[C@H](CCCCN)NC(=O)[C@H]([C@@H](C)CC)NC1=O [compound 186]
